Results published in patent publication US20040242525A1, “Method for promoting gonadal growth in an animal” (Nagoya University, priority 2003, published 2004).
Entries after “also recorded” stand apart in the source; their conditions may differ.

Key:
[1] = tested on: Japanese quail testis (gonadal growth); assay: IOP infusion, testicular growth under long-day condition; type: in vivo, Japanese quail (Coturnix coturnix japonica); conditions: long-day condition (p<0.05)
Protocol: (§1) To assess directly whether T3 mediates photoperiodic response of gonads, the inventors studied the effect of intracerebroventricular (i.c.v.) infusion of T3 on gonadal growth. Vehicle and several doses of T3 and T4 were infused to third ventricle by osmotic mini pump and testicular size was measured before and after the infusion. […] Therefore, the inventors furthermore examined the effect of IOP infusion under long-day condition (FIG. 10b).

[2] = tested on: Japanese quail testis (gonadal growth); assay: intracerebroventricular infusion by osmotic mini pump, testicular growth under short-day condition; type: in vivo, Japanese quail (Coturnix coturnix japonica); conditions: for testicular growth: i.c.v. infusion to third ventricle, several doses, short-day condition (light 8 hrs, dark 16 hrs), male Japanese quail
Protocol: as §1

[3] = tested on: Japanese quail gonadotropin release and gonadal growth; conditions: cited from earlier work; for photoperiodically induced gonadotropin secretion and gonadal growth: peripheral injection of pharmacological dose
[4] = cited from earlier work

SMILES: CCC(Cc1c(I)cc(I)c(N)c1I)C(=O)O (stereo not shown) [IOP, lopanoic acid]
- testicular growth [1]: can reduce testicular growth; also recorded: reduces testicular growth

SMILES: N[C@@H](Cc1cc(I)c(Oc2ccc(O)c(I)c2)c(I)c1)C(=O)O [T3, 3,5,3′-triiodothyronine]
- testicular growth [2]: mimics testicular growth with dose dependent manner
- testicular growth at the largest dose ([2]; i.c.v. infusion, largest dose, short-day condition): testicular growth was not observed
- dose giving the greatest effect ([2]; intracerebroventricular administration to Japanese quail): 0.3 ng per day
- photoperiodically induced gonadotropin secretion and gonadal growth [3]: can mimic

SMILES: N[C@@H](Cc1cc(I)c(Oc2cc(I)c(O)c(I)c2)c(I)c1)C(=O)O [T4, Thyroxine]
- testicular growth [2]: little effect
- fraction of T4 converted to T3 in the blood [4]: about ⅓
- fraction of T4 converted to reverse T3 (RT3) in the blood [4]: ~45%
- photoperiodically induced gonadotropin secretion and gonadal growth [3]: can mimic
- relative effectiveness to mimic gonadotropin release ([3]; peripheral injection): more effective than T3
